Results taken from US20170183297A1, “OMEGA-3 ANALOGUES” (The University of Sydney, priority 2014, published 2017).

Key:
[1] = tested on: human MDA-MB-231 breast cancer cell xenografts; experiment: Dose-response effects on breast tumour growth in nude mice with MDA-MB-231 xenografts (37 days IP); assay type: in vivo, mouse (nu/nu Balb/c, female); conditions: for Average tumour volumes / Final tumour weight at day 37: mean ± SEM, n = 5; for tumour suppression (overall statement): all doses (2.5, 10, 40 mg/kg)
Method: Dose-response effects of compounds CP01 and CP03 on breast tumour growth in nude mice with human MDA-MB-231 breast cancer cell xenografts (subcutaneous injection in mammary fat pad)
5 weeks old when ordered, 6 weeks old when xenografted.
human MDA-MB-231 cells, 4×10^5 cells/100 μL (Matrigel:PBS 1:1)/mouse, subcutaneous injection into the third mammary fat pad.
7 groups, 5 mice in each group. After the cell injection, 7 cages were randomly divided into 7 groups following the average mouse body weight of mice each cage. • Control • CP01-2.5 mg/kg • CP01-10 mg/kg • CP01-40 mg/kg • CP03-2.5 mg/kg • CP03-10 mg/kg • CP03-40 mg/kg
Solid CP01 or CP03 powder was dissolved in DMSO at 40° C. to a final concentration of 400 mg/mL.
(§1) After 4 days of cancer cell xenografting, IP administration of compounds CP01 or CP03 was started (2.5, 10 and 40 mg/kg). Compounds were diluted in corn oil containing 4% DMSO. Injection volume was 50 μL each mouse with a 20-gram body weight. IP injections were administered once a day for six days per week for a total of 37 days in duration. In a further study (see below), different doses of CP01, CP03 and CP05 were administered to nude mice carrying MDA-MB-231 xenografts (FIGS. 11, 12 and 13, respectively). The endpoint in this experiment was tumour volume and the experiments were conducted for 32 days.
(§2) Body weights were recorded six days per week and tumour sizes were measured with a pair of caliper, every three to four days.

[2] = Mouse body weight growth in control and treated groups; assay type: in vivo; conditions: IP 2.5, 10 and 40 mg/kg, 37 days; for body weight growth of treated mice compared with control group: once a day six days per week
Method: The weight range at the start of IP treatments was from 13.1 g to 18.1 g at Day 1 and increased to a range of 17.1 g to 21.3 g at Day 37.
as §1, §2

MDA-MB-231 cells = experiment: Matrigel migration assay; assay type: cell-based, Human; conditions: 1, 5 and 10 μM, 24 h; P<0.01; FIG. 4
Method: Human MDA-MB-231, MDA-MB-468 and T-47D breast cancer cells were obtained from the American Type Culture Collection (ATCC; Manassas, Va., USA). Cells were plated on 96-well microplates at a density of 1×10^4 cells per well for MTT, ATP, Caspase and JC-1 assays. Cells were maintained in Dulbecco's Modified Eagle's Medium (DMEM; Invitrogen, Carlsbad, Calif., USA) supplemented with 10% (w/v) fetal bovine serum (Hyclone, Salt Lake City, Utah, USA), 100 U/mL penicillin, and 100 μg/mL streptomycin (Invitrogen). All of the cells were incubated at 37° C. in a humidified atmosphere of 95% air and 5% CO2. Confluent cells (80-90%) were washed in phosphate-buffered saline, harvested using Trypsin/EDTA, and counted using trypan blue exclusion in a Countess Automated Cell Counter (Invitrogen) before passaging or use in assays.
MDA-MB-231 cells were trypsinized and resuspended in serum-free DMEM media (3.5×10^6 cells/mL). The cell suspension was mixed 1:1 with Matrigel solution (Bio Scientific; Kirrawee, NSW, Australia). Aliquots (20 μL containing 3.5×10^4 cells) were placed into 6-well tissue-culture dishes to form well-defined droplets and incubated at 37° C. for 5 min to enable semi-solidification. Migration media was freshly made as DMEM containing 20% fetal bovine serum, epidermal growth factor 10 pg/mL, hydrocortisone 0.4 ng/mL, vascular endothelial growth factor (VEGF, 1 pg/mL), basic fibroblast growth factor (bFGF, 20 pg/mL), insulin-like growth factor-1 (40 pg/mL), ascorbic acid (2 ng/mL) and heparin (45 ng/mL). Compounds were added in migration media (3 mL/well) and plates were then incubated for 24 h. Cells that migrated out of droplets were scored using phase-contrast microscopy and digital image analysis (Olympus).

## O=C(O)CCCCCCCCCCCSCCCNC(=O)Nc1ccc(Cl)c(C(F)(F)F)c1 [CP01, 12-{[3-({[4-Chloro-3-(trifluoromethyl)phenyl]carbamoyl}amino)propyl]sulfanyl}dodecanoic acid]
[1]; 2.5 mg/kg IP, Day 8
  Average tumour volumes: 12.5 ± 1.9 mm^3
[1]; 2.5 mg/kg IP, Day 11
  Average tumour volumes: 10.5 ± 1^ mm^3
[1]; 2.5 mg/kg IP, Day 15
  Average tumour volumes: 10 ± 2.9 mm^3
[1]; 2.5 mg/kg IP, Day 18
  Average tumour volumes: 12.2 ± 3.2 mm^3
[1]; 2.5 mg/kg IP, Day 21
  Average tumour volumes: 16.9 ± 4.4 mm^3
[1]; 2.5 mg/kg IP, Day 25
  Average tumour volumes: 23.9 ± 6.1 mm^3
[1]; 2.5 mg/kg IP, Day 29
  Average tumour volumes: 29.3 ± 7.4 mm^3
[1]; 2.5 mg/kg IP, Day 32
  Average tumour volumes: 52.1 ± 15 mm^3
[1]; 2.5 mg/kg IP, Day 35
  Average tumour volumes: 67.7 ± 17.1 mm^3
[1]; 2.5 mg/kg IP, Day 37
  Average tumour volumes: 78.7 ± 19.8 mm^3
[1]; 2.5 mg/kg IP
  Final tumour weight at day 37: 0.05 ± 0.01 g
[1]; 10 mg/kg IP, Day 8
  Average tumour volumes: 15 ± 2.4 mm^3
[1]; 10 mg/kg IP, Day 11
  Average tumour volumes: 15.6 ± 1.8 mm^3
[1]; 10 mg/kg IP, Day 15
  Average tumour volumes: 16.5 ± 2.8 mm^3
[1]; 10 mg/kg IP, Day 18
  Average tumour volumes: 22 ± 4.5 mm^3
[1]; 10 mg/kg IP, Day 21
  Average tumour volumes: 26.4 ± 4.5 mm^3
[1]; 10 mg/kg IP, Day 25
  Average tumour volumes: 33.6 ± 6.2 mm^3
[1]; 10 mg/kg IP, Day 29
  Average tumour volumes: 45.2 ± 11.2 mm^3
[1]; 10 mg/kg IP, Day 32
  Average tumour volumes: 67.5 ± 19.3 mm^3
[1]; 10 mg/kg IP, Day 35
  Average tumour volumes: 85.7 ± 25.3 mm^3
[1]; 10 mg/kg IP, Day 37
  Average tumour volumes: 116.5 ± 37.6 mm^3
[1]; 10 mg/kg IP
  Final tumour weight at day 37: 0.08 ± 0.03 g
[1]; 40 mg/kg IP, Day 8
  Average tumour volumes: 11 ± 1.3 mm^3
[1]; 40 mg/kg IP, Day 11
  Average tumour volumes: 13.6 ± 2^ mm^3
[1]; 40 mg/kg IP, Day 15
  Average tumour volumes: 14.7 ± 0.7 mm^3
[1]; 40 mg/kg IP, Day 18
  Average tumour volumes: 23.6 ± 2.7 mm^3
[1]; 40 mg/kg IP, Day 21
  Average tumour volumes: 26.3 ± 6^ mm^3
[1]; 40 mg/kg IP, Day 25
  Average tumour volumes: 35.9 ± 13.4 mm^3
[1]; 40 mg/kg IP, Day 29
  Average tumour volumes: 47.8 ± 17^ mm^3
[1]; 40 mg/kg IP, Day 32
  Average tumour volumes: 67.8 ± 26 mm^3
[1]; 40 mg/kg IP, Day 35
  Average tumour volumes: 116.6 ± 40.7 mm^3
[1]; 40 mg/kg IP, Day 37
  Average tumour volumes: 132.8 ± 50.9 mm^3
[1]; 40 mg/kg IP
  Final tumour weight at day 37: 0.11 ± 0.05 g
[1]
  tumour suppression (overall statement): strong trends toward tumour suppression at all doses
[1]; dose 2.5 mg/kg
  reduction in tumour size (suppression of tumour growth): 59%
[1]; dose 10 mg/kg
  reduction in tumour size (suppression of tumour growth): 39%
[1]; dose 40 mg/kg
  reduction in tumour size (suppression of tumour growth): 30%
[2]
  evidence of toxicity (from body weight): no evidence of toxicity
  body weight growth of treated mice compared with control group: no significant difference

## Cc1ccc(NC(=O)NCCCSCCCCCCCCCCCC(=O)O)cc1 [CP02, 12-[(3-{[(4-Methylphenyl)carbamoyl]amino}propyl)sulfanyl]dodecanoic acid]
MDA-MB-231 cells
  migration of MDA-MB-231 cells out of matrigel droplets: all decreases significant

## O=C(O)CSCCCCCCCCCCCCCNC(=O)Nc1ccc(Cl)c(C(F)(F)F)c1 [CP03, {[13-({[4-Chloro-3-(trifluoromethyl)phenyl]carbamoyl}amino)tridecyl]sulfanyl}acetic acid]
[1]; 2.5 mg/kg IP, Day 8
  Average tumour volumes: 8.8 ± 1.4 mm^3
[1]; 2.5 mg/kg IP, Day 11
  Average tumour volumes: 10.7 ± 1.3 mm^3
[1]; 2.5 mg/kg IP, Day 15
  Average tumour volumes: 14.5 ± 0.9 mm^3
[1]; 2.5 mg/kg IP, Day 18
  Average tumour volumes: 18 ± 1.6 mm^3
[1]; 2.5 mg/kg IP, Day 21
  Average tumour volumes: 23 ± 2.8 mm^3
[1]; 2.5 mg/kg IP, Day 25
  Average tumour volumes: 29.5 ± 6 mm^3
[1]; 2.5 mg/kg IP, Day 29
  Average tumour volumes: 45.4 ± 9.5 mm^3
[1]; 2.5 mg/kg IP, Day 32
  Average tumour volumes: 60.9 ± 13.7 mm^3
[1]; 2.5 mg/kg IP, Day 35
  Average tumour volumes: 80.4 ± 21^ mm^3
[1]; 2.5 mg/kg IP, Day 37
  Average tumour volumes: 106.7 ± 29.4 mm^3
[1]; 2.5 mg/kg IP
  Final tumour weight at day 37: 0.09 ± 0.03 g
[1]; 10 mg/kg IP, Day 8
  Average tumour volumes: 11.3 ± 2.9 mm^3
[1]; 10 mg/kg IP, Day 11
  Average tumour volumes: 10.9 ± 1.5 mm^3
[1]; 10 mg/kg IP, Day 15
  Average tumour volumes: 16.5 ± 2.8 mm^3
[1]; 10 mg/kg IP, Day 18
  Average tumour volumes: 19.3 ± 2.1 mm^3
[1]; 10 mg/kg IP, Day 21
  Average tumour volumes: 17.1 ± 2.9 mm^3
[1]; 10 mg/kg IP, Day 25
  Average tumour volumes: 23.1 ± 5 mm^3
[1]; 10 mg/kg IP, Day 29
  Average tumour volumes: 29 ± 7.5 mm^3
[1]; 10 mg/kg IP, Day 32
  Average tumour volumes: 39.3 ± 12.9 mm^3
[1]; 10 mg/kg IP, Day 35
  Average tumour volumes: 50.3 ± 21.2 mm^3
[1]; 10 mg/kg IP, Day 37
  Average tumour volumes: 67.3 ± 33.3 mm^3
[1]; 10 mg/kg IP
  Final tumour weight at day 37: 0.06 ± 0.03 g
[1]; 40 mg/kg IP, Day 8
  Average tumour volumes: 13.4 ± 2.3 mm^3
[1]; 40 mg/kg IP, Day 11
  Average tumour volumes: 12.5 ± 2^ mm^3
[1]; 40 mg/kg IP, Day 15
  Average tumour volumes: 17.2 ± 1.9 mm^3
[1]; 40 mg/kg IP, Day 18
  Average tumour volumes: 24.4 ± 5.5 mm^3
[1]; 40 mg/kg IP, Day 21
  Average tumour volumes: 24 ± 5.2 mm^3
[1]; 40 mg/kg IP, Day 25
  Average tumour volumes: 35.7 ± 10.7 mm^3
[1]; 40 mg/kg IP, Day 29
  Average tumour volumes: 46.3 ± 16.7 mm^3
[1]; 40 mg/kg IP, Day 32
  Average tumour volumes: 65.7 ± 23^ mm^3
[1]; 40 mg/kg IP, Day 35
  Average tumour volumes: 96.1 ± 33.8 mm^3
[1]; 40 mg/kg IP, Day 37
  Average tumour volumes: 118.9 ± 44.7 mm^3
[1]; 40 mg/kg IP
  Final tumour weight at day 37: 0.09 ± 0.04 g
[1]
  tumour suppression (overall statement): strong trends toward tumour suppression at all doses
[1]; dose 2.5 mg/kg
  reduction in tumour size (suppression of tumour growth): 44%
[1]; dose 10 mg/kg
  reduction in tumour size (suppression of tumour growth): 65%
[1]; dose 40 mg/kg
  reduction in tumour size (suppression of tumour growth): 38%
[2]
  evidence of toxicity (from body weight): no evidence of toxicity
  body weight growth of treated mice compared with control group: no significant difference

## Cc1ccc(NC(=O)NCCCCCCCCCCCCCSCC(=O)O)cc1 [CP04]
MDA-MB-231 cells
  migration of MDA-MB-231 cells out of matrigel droplets: all decreases significant

## Cc1ccc(NC(=O)NCCCSCCCCCCCCCSCC(=O)O)cc1 [CP06, ({9-[(3-{[(4-Methylphenyl)carbamoyl]amino}propyl)sulfanyl]nonyl}sulfanyl)acetic acid]
MDA-MB-231 cells
  migration of MDA-MB-231 cells out of matrigel droplets: all decreases significant
